Data reported in patent US9452985B2, “Tau imaging probe” (GE Healthcare Limited, priority 2010, dated 2016).
Where a name gives a salt, the structure may show the parent alone.

The molecules below were run on neurofibrillary tangles (assay: Staining test on brain section of Alzheimer's disease patients). Conditions: 100 μM solution in 50% ethanol, 10 minutes, fluorescence microscope.
Type: binding, human
Text: The procedure of staining test on the compounds of the present invention on the brain section of Alzheimer's disease patients is described below:
(1) We used the brain specimens of the temporal lobe or hippocampus from patients who were definitely diagnosed as having Alzheimer's disease pathology. The specimens were obtained from Choju Medical Institute, Fukushimura Hospital, our collaborating research institute, and the consent for use for research purposes was obtained from the patients' bereaved family (Fukushimura Hospital, Ethics Committee Approval No. 20).
(2) The paraffin-embedded brain tissue was sliced to 6 or 8 μm thickness, extended on a slide glass, and dried. The paraffinized brain section was deparaffinized by washing with xylene for 10 minutes×2, 100% ethanol for 5 minutes×2, 90% ethanol for 5 minutes, and running water for 10 minutes in this order.
(3) As a pretreatment for staining with the compounds of the present invention, the treatment to remove autofluorescence with lipofuscin was performed. First, the paraffinized brain section was immersed in 0.25% KMnO4 solution for 20 minutes. It was washed with PBS for 2 minutes twice, immersed in a 0.1% K2S2O5/oxalic acid solution for approximately 5 minutes, and further washed with PBS for 2 minutes 3 times.
(4) From 100 μM solution of the compounds of the present invention dissolved in 50% ethanol, approximately 150 μl was dropped on the section to react for 10 minutes. After being immersed in tap water 5 times, it was mounted with Flour Save Reagent (Calbiochem) and examined with a fluorescence microscope (Nikon, ECLIPSE 80i). The images were taken with a digital camera (Nikon, Dxin1200F or Photometrics, Cool SNAP ES).

Row | SMILES | binding to neurofibrillary tangles in the brain section of Alzheimer's disease patients (staining test)
1 | Nc1cccc2nc(-c3ccc(F)cc3)ccc12 [THK-5079, 5-amino-2-(4-fluorophenyl)quinoline] | bind to neurofibrillary tangles specifically and selectively
2 | CN1CCOc2cc(-c3ccc4cc(OCC(O)CF)ccc4n3)cnc21 (stereo not shown) [THK-5136, 6-[(3-fluoro-2-hydroxy)propoxy]-2-(4-methyl-3,4-dihydro-2H-pyrido[3,2-b][1,4]oxazin-7-yl)quinoline] | bind to neurofibrillary tangles specifically and selectively
3 | CCN(CC)c1ccc(-c2ccc3ccc(OC(CO)CF)cc3n2)cc1 (stereo not shown) [THK-5058, 2-(4-diethylaminophenyl)-7-(1-fluoromethyl-2-hydroxyethoxy)quinoline] | bind to neurofibrillary tangles specifically and selectively
4 | CN(C)c1ccc2nc(-c3ccc(N(C)C)c(OCC(O)CF)c3)ccc2c1 (stereo not shown) [THK-5156, 2-[3-[(3-fluoro-2-hydroxy)propoxy]-4-(dimethylamino)phenyl]-6-dimethylaminoquinoline] | bind to neurofibrillary tangles specifically and selectively
5 | CN1CCCc2cc(-c3ccc4cc(OCC(O)CF)ccc4n3)ccc21 (stereo not shown) [THK-5153, 6-[(3-fluoro-2-hydroxy)propoxy]-2-(1-methyl-1,2,3,4-tetrahydroquinolin-6-yl)quinoline] | bind to neurofibrillary tangles specifically and selectively
6 | CN(C)c1cccc2nc(-c3ccc(F)cc3)ccc12 [THK-5080, 2-(4-fluorophenyl)-5-dimethylaminoquinoline oxalate] | bind to neurofibrillary tangles specifically and selectively
7 | CCN(CC)c1ccc2nc(-c3ccc(F)nc3)ccc2c1 [THK-5088, 6-diethylamino-2-(2-fluoropyrid-5-yl)quinoline] | bind to neurofibrillary tangles specifically and selectively
8 | CCN(CC)c1ccc(-c2ccc3ccc(OCC(O)CF)cc3n2)cc1 (stereo not shown) [THK-5038, 2-(4-diethylaminophenyl)-7-(2-fluoromethyl-2-hydroxyethoxy)quinoline] | bind to neurofibrillary tangles specifically and selectively
9 | Nc1ccc(-c2ccc3ccc(OC(CO)CF)cc3n2)cn1 (stereo not shown) [THK-932, 2-(2-aminopyrid-5-yl)-7-(1-fluoromethyl-2-hydroxyethoxy)quinoline] | bind to neurofibrillary tangles specifically and selectively
10 | CN1CCCc2cc(-c3ccc4cc(OC(C)(C)C(O)CF)ccc4n3)ccc21 (stereo not shown) [THK-5157, 6-[(3-fluoro-2-hydroxy-1,1-dimethyl)propoxy]-2-(1-methyl-1,2,3,4-tetrahydroquinolin-6-yl)quinoline] | bind to neurofibrillary tangles specifically and selectively
11 | CCN(CC)c1cccc2nc(-c3ccc(F)nc3)ccc12 [THK-5092, 5-diethylamino-2-(2-fluoropyrid-5-yl)quinoline] | bind to neurofibrillary tangles specifically and selectively
12 | CNc1ccc(-c2ccc3cc(N(C)C)ccc3n2)cc1OCC(O)CF (stereo not shown) [THK-5164, 2-[3-[(3-fluoro-2-hydroxy)propoxy]-4-(methylamino)phenyl]-6-dimethylamino quinoline] | bind to neurofibrillary tangles specifically and selectively
13 | CN(C)c1ccc2nc(-c3ccc(N)c(F)c3)ccc2c1 [THK-5128, 2-(4-amino-3-fluorophenyl)-6-dimethylaminoquinoline] | bind to neurofibrillary tangles specifically and selectively
14 | Nc1ccc2nc(-c3ccc(N)c(OCC(O)CF)c3)ccc2c1 (stereo not shown) [THK-5155, 6-amino-2-[4-(amino)-3-[(3-fluoro-2-hydroxy)propoxy]phenyl]quinoline] | bind to neurofibrillary tangles specifically and selectively
15 | CN(C)c1ccc2ccc(-c3ccc(F)cc3)nc2c1 [THK-5076, 2-(4-fluorophenyl)-7-dimethylaminoquinoline] | bind to neurofibrillary tangles specifically and selectively
16 | CNc1ccc(-c2ccc3ccc(OC(CO)CF)cc3n2)cc1 (stereo not shown) [THK-5077, 7-(1-fluoromethyl-2-hydroxyethoxy)-2-(4-methylaminophenyl)quinoline] | bind to neurofibrillary tangles specifically and selectively

Row | SMILES | binding to neurofibrillary tangles in the brain section of Alzheimer's disease patients (staining test)
17 | CCNc1cccc2nc(-c3ccc(F)nc3)ccc12 [THK-5091, 5-ethylamino-2-(2-fluoropyrid-5-yl)quinoline] | bind to neurofibrillary tangles specifically and selectively
18 | CNc1ccc(-c2ccc3ccc(OCC(O)CF)cc3n2)cc1 (stereo not shown) [THK-5106, 7-[(3-fluoro-2-hydroxy)propoxy]-2-(4-methylaminophenyl)quinoline] | bind to neurofibrillary tangles specifically and selectively
19 | CN(C)c1ccc(-c2ccc3ccc(OC(CO)CF)cc3n2)cc1 (stereo not shown) [THK-5071, 2-(4-fluoromethyl-2-hydroxyethoxy)-2-(4-dimethylaminophenyl)quinoline] | bind to neurofibrillary tangles specifically and selectively
20 | CCN(CC)c1ccc(-c2cc(OCC(O)CF)c3ccccc3n2)cc1 (stereo not shown) [THK-5059, 2-(4-diethylaminophenyl)-4-(3-fluoro-2-hydroxypropoxy)quinoline] | bind to neurofibrillary tangles specifically and selectively
21 | CCN(CC)c1ccc(-c2nc3ccccc3cc2OC(CO)CF)cc1 (stereo not shown) [THK-5065, 2-(4-diethylaminophenyl)-3-(1-fluoromethyl-2-hydroxyethoxy)quinoline] | bind to neurofibrillary tangles specifically and selectively
22 | CN(C)c1cccc2ccc(-c3ccc(F)cc3)nc12 [THK-5082, 2-(4-fluorophenyl)-8-dimethylaminoquinoline] | bind to neurofibrillary tangles specifically and selectively
23 | CN(C)c1ccc2nc(-c3ccc(F)cc3)ccc2c1 [THK-5087, 2-(4-fluorophenyl)-6-dimethylaminoquinoline] | bind to neurofibrillary tangles specifically and selectively
24 | CCN(CC)c1ccc(-c2ccc3c(OC(CO)CF)cccc3n2)cc1 (stereo not shown) [THK-5064, 2-(4-diethylaminophenyl)-5-(1-fluoromethyl-2-hydroxyethoxy)quinoline] | bind to neurofibrillary tangles specifically and selectively
25 | CCN(CC)c1ccc(-c2ccc3cccc(OCC(O)CF)c3n2)cc1 (stereo not shown) [THK-5066, 2-(4-diethylaminophenyl)-8-[(3-fluoro-2-hydroxy)propoxy]quinoline] | bind to neurofibrillary tangles specifically and selectively
26 | CN(C)c1ccc(-c2ccc3ccc(OCC(O)CF)cc3n2)cc1 (stereo not shown) [THK-5107, 7-[(3-fluoro-2-hydroxy)propoxy]-2-(4-dimethylaminophenyl)quinoline] | bind to neurofibrillary tangles specifically and selectively
27 | CCN(CC)c1ccc2ccc(-c3ccc(F)nc3)nc2c1 [THK-5097, 7-diethylamino-2-(2-fluoropyrid-5-yl)quinoline] | bind to neurofibrillary tangles specifically and selectively
28 | Nc1cccc2ccc(-c3ccc(F)cc3)nc12 [THK-5081, 8-amino-2-(4-fluorophenyl)quinoline] | bind to neurofibrillary tangles specifically and selectively
29 | Nc1ccc2ccc(-c3ccc(F)cc3)nc2c1 [THK-5075, 7-amino-2-(4-fluorophenyl)quinoline] | bind to neurofibrillary tangles specifically and selectively
30 | CCN(C)c1ccc(-c2ccc3ccc(OCC(O)CF)cc3n2)cc1 (stereo not shown) [THK-5112, 2-(4-ethylmethylaminophenyl)-7-[(3-fluoro-2-hydroxy)propoxy]quinoline] | bind to neurofibrillary tangles specifically and selectively
31 | Nc1ccc2nc(-c3ccc(F)cc3)ccc2c1 [THK-5086, 6-amino-2-(4-fluorophenyl)quinoline] | bind to neurofibrillary tangles specifically and selectively
